Test results from patent publication US20250176542A1, “Antibacterial Composition” (LG Chem, Ltd., priority 2022, published 2025).

Experiments:
[1] = test system: E. coli bacteria; assay: Bacterial proliferation inhibition rate measurement (Method 1); format: cell-based; conditions: 0.04 g in 20 mL nutrient broth inoculated with 3,000±300 CFU/mL, 37° C., 24 hours, absorbance at 600 nm
Protocol: After 0.04 g of the antibacterial composition is added to 20 mL of a nutrient broth culture solution inoculated with 3,000±300CFU/mL of bacterial strain, from the culture solution of an experimental group in which the resulting mixture is incubated at 37° C. in a shaking incubator for 24 hours, the absorbance at a wavelength of 600 nm is measured using a UV/Vis spectrophotometer, • the antibacterial composition is not added to 20 mL of a nutrient broth culture solution inoculated with 3,000±300CFU/mL of bacterial strain, from the culture solution of a control in which the nutrient broth culture solution is incubated at 37° C. for 24 hours, the absorbance at a wavelength of 600 nm is measured using a UV/Vis spectrophotometer, and • from the absorbance of the experimental group and the absorbance of the control group, the bacterial proliferation inhibition rate (%) of the test bacteria is calculated using the following Equation 1.
In the present experiment, the bacterial proliferation inhibition rate was measured according to the following Method 1. In this case, E. coli bacteria were used.

[2] = Primary thermal decomposition measurement (thermogravimetric analyzer); format: physicochemical; conditions: N2 atmospheric environment, extrapolated onset of first mass reduction section
From the text: The primary thermal decomposition temperature may be defined as an extrapolated intersection point between a starting mass reference line and the tangent line of the maximum slope point in the first mass reduction section of a mass loss curve measured by a thermogravimetric analyzer in an N2 atmospheric environment.
A thermogravimetric analyzer (TGA2 manufactured by Mettler Toledo) was used in order to perform an experiment on the primary thermal decomposition temperature of the antibacterial compositions of Examples 1 to 13 and Comparative Example 1.
In the present experiment, the primary thermal decomposition temperature may be defined as an extrapolated intersection point between a starting mass reference line and the tangent line of the maximum slope point in the first mass reduction section of a mass loss curve measured by a thermogravimetric analyzer in an N2 atmospheric environment. In the present disclosure, it was determined that when the primary thermal decomposition temperature of the antibacterial composition has a value higher than the primary thermal decomposition temperature of the material before anion substitution, the heat resistance has increased.

SMILES	Bacterial proliferation inhibition rate [1]	Primary thermal decomposition temperature [2]
C=Cc1ccc(C[N+](C)(C)CCCCCCCCCCCC)cc1.[Cl-] [Comparative Example 1]	96.3%	–
C=Cc1ccc(C[N+](C)(C)CCCCCCCCCCCC)cc1.O=S(=O)([O-])C(F)(F)F [Example 1]	–	369 °C
